Reference: the supplement of paper PMC11451515

System: P12-Ichikawa
Assay: cell viability relative to DMSO control; higher = less cytotoxic
Settings: 48 h
In short: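 Library compounds in DMSO were pin-dosed into 1536-well plates (5 μl) holding NOMO1 or SEM (500 cells/well) or P12-Ichikawa (1000 cells/well) leukemia cells, across an 11-point threefold series of 47 μM to 0.79 nM. Each cell line had been adapted for at least four passages in each medium. CellTiter-Glo One luminescence was read after 48 h at 37°C. Viability is the per-plate percentage relative to DMSO wells, with cell-free wells as background.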

[1] = HPLM + 10% dialyzed FBS, 0.000781 µM
[2] = HPLM + 10% dialyzed FBS, 0.00234 µM
[3] = HPLM + 10% dialyzed FBS, 0.00702 µM
[4] = HPLM + 10% dialyzed FBS, 0.0211 µM
[5] = HPLM + 10% dialyzed FBS, 0.0632 µM
[6] = HPLM + 10% dialyzed FBS, 0.19 µM
[7] = HPLM + 10% dialyzed FBS, 0.569 µM
[8] = HPLM + 10% dialyzed FBS, 1.71 µM
[9] = HPLM + 10% dialyzed FBS, 5.12 µM
[10] = HPLM + 10% dialyzed FBS, 15.4 µM
[11] = HPLM + 10% dialyzed FBS, 46.1 µM
[12] = RPMI 5 mM glucose + 10% dialyzed FBS, 0.000781 µM
[13] = RPMI 5 mM glucose + 10% dialyzed FBS, 0.00234 µM
[14] = RPMI 5 mM glucose + 10% dialyzed FBS, 0.00702 µM
[15] = RPMI 5 mM glucose + 10% dialyzed FBS, 0.0211 µM
[16] = RPMI 5 mM glucose + 10% dialyzed FBS, 0.0632 µM
[17] = RPMI 5 mM glucose + 10% dialyzed FBS, 0.19 µM
[18] = RPMI 5 mM glucose + 10% dialyzed FBS, 0.569 µM
[19] = RPMI 5 mM glucose + 10% dialyzed FBS, 1.71 µM
[20] = RPMI 5 mM glucose + 10% dialyzed FBS, 5.12 µM
[21] = RPMI 5 mM glucose + 10% dialyzed FBS, 15.4 µM
[22] = RPMI 5 mM glucose + 10% dialyzed FBS, 46.1 µM
[23] = RPMI 5 mM glucose + 10% FBS, 0.000781 µM
[24] = RPMI 5 mM glucose + 10% FBS, 0.00234 µM
[25] = RPMI 5 mM glucose + 10% FBS, 0.00702 µM
[26] = RPMI 5 mM glucose + 10% FBS, 0.0211 µM
[27] = RPMI 5 mM glucose + 10% FBS, 0.0632 µM
[28] = RPMI 5 mM glucose + 10% FBS, 0.19 µM
[29] = RPMI 5 mM glucose + 10% FBS, 0.569 µM
[30] = RPMI 5 mM glucose + 10% FBS, 1.71 µM
[31] = RPMI 5 mM glucose + 10% FBS, 5.12 µM
[32] = RPMI 5 mM glucose + 10% FBS, 15.4 µM
[33] = RPMI 5 mM glucose + 10% FBS, 46.1 µM

Row | SMILES | cell viability [1] [%] | cell viability [2] [%] | cell viability [3] [%] | cell viability [4] [%] | cell viability [5] [%] | cell viability [6] [%] | cell viability [7] [%] | cell viability [8] [%] | cell viability [9] [%] | cell viability [10] [%] | cell viability [11] [%] | cell viability [12] [%] | cell viability [13] [%] | cell viability [14] [%] | cell viability [15] [%] | cell viability [16] [%] | cell viability [17] [%] | cell viability [18] [%] | cell viability [19] [%] | cell viability [20] [%] | cell viability [21] [%] | cell viability [22] [%] | cell viability [23] [%] | cell viability [24] [%] | cell viability [25] [%] | cell viability [26] [%] | cell viability [27] [%] | cell viability [28] [%] | cell viability [29] [%] | cell viability [30] [%] | cell viability [31] [%] | cell viability [32] [%] | cell viability [33] [%]
1 | CC(C)Nc1cc(C(F)(F)F)cc2nc(NC(=O)c3cccnc3)nn12 | 113 | 115 | 117 | 116 | 108 | 107 | 108 | 10.1 | 12.6 | 14.6 | 33.5 | 121 | 115 | 113 | 113 | 116 | 114 | 111 | 28.2 | 24.1 | 24.9 | 37 |  |  |  |  |  |  |  |  |  |  | 
2 | CN(C)C(=O)c1ccc([S+](=O)([O-])c2ccc(NC(=O)[C@@](C)(O)C(F)(F)F)c(Cl)c2)cc1 | 105 | 111 | 107 | 113 | 116 | 117 | 114 | 117 | 100 | 100 | 43.3 | 106 | 110 | 102 | 118 | 114 | 117 | 118 | 106 | 103 | 72.5 | 63.5 | 98 | 98.1 | 107 | 108 | 115 | 110 | 97.9 | 101 | 93.9 | 80.9 | 62.6
3 | Cc1ncc(OC[C@@]2(c3cccc(F)c3)C[C@H]2C(=O)Nc2ccc(F)cn2)c(C)n1 | 104 | 101 | 104 | 104 | 105 | 111 | 114 | 102 | 102 | 103 | 13.4 | 111 | 108 | 119 | 113 | 108 | 121 | 116 | 115 | 117 | 106 | 96.2 | 107 | 107 | 108 | 112 | 110 | 106 | 106 | 107 | 107 | 106 | 97.3
4 | CCOC(=O)[C@H](CCc1ccccc1)N[C@@H](C)C(=O)N1CCC[C@H]1C(=O)O | 120 | 108 | 116 | 111 | 102 | 117 | 112 | 109 | 108 | 97.8 | 106 | 114 | 111 | 106 | 110 | 113 | 116 | 105 | 121 | 104 | 108 | 102 | 118 | 117 | 107 | 111 | 113 | 113 | 108 | 111 | 108 | 98.1 | 101
5 | C1CCC(C(CC2CCCCN2)C2CCCCC2)CC1 (configuration not stated) | 115 | 117 | 124 | 119 | 128 | 124 | 129 | 127 | 119 | 123 | 88.3 | 109 | 127 | 107 | 122 | 123 | 124 | 122 | 126 | 117 | 115 | 67.7 | 118 | 123 | 124 | 115 | 128 | 134 | 126 | 119 | 131 | 106 | 54.2
6 | ClC1=CC(=CC=C1)N2CCN(CCCN3\N=C4\C=C/C=C\N4C3=O)CC2 | 118 | 120 | 120 | 134 | 128 | 132 | 134 | 142 | 140 | 134 | 139 |  |  |  |  |  |  |  |  |  |  |  |  |  |  |  |  |  |  |  |  |  | 
7 | C[S+](=O)([O-])N(Cc1ccco1)CC(O)Cn1c2ccccc2c2ccccc21 (configuration not stated) | 94.2 | 88.9 | 94.2 | 99.9 | 96.3 | 98.8 | 94.8 | 89.8 | 89.3 | 85.8 | 56.6 | 86 | 90.7 | 97 | 97.1 | 94.4 | 87.1 | 81.3 | 88.8 | 85.7 | 73.4 | 41.7 | 92 | 94 | 92 | 89.2 | 97.7 | 99.2 | 91.9 | 83.6 | 76.4 | 79.2 | 42.1
8 | CCC(=O)OCC(=O)[C@@]1(OC(=O)CC)[C@@H](C)C[C@H]2[C@@H]3CCC4=CC(=O)C=C[C@]4(C)[C@@]3(F)[C@@H](O)C[C@@]21C | 107 | 110 | 111 | 107 | 111 | 96.4 | 80.1 | 65.9 | 64.3 | 12.3 | 6.01 | 101 | 111 | 107 | 94.8 | 90.3 | 76.2 | 67.6 | 54.6 | 52.2 | 5.68 | 4.77 | 106 | 111 | 121 | 108 | 102 | 89.9 | 73.4 | 68.6 | 56 | 6.2 | 6.14
9 | CC1=CC=CC=C1CN2C(=O)C/3=C(/CCN(CC4=CC=CC=C4)C3)N\5CC\N=C25 | 124 | 120 | 119 | 119 | 119 | 112 | 107 | 106 | 81.9 | 53.4 | 57.5 |  |  |  |  |  |  |  |  |  |  |  | 129 | 109 | 117 | 119 | 127 | 114 | 118 | 122 | 79.8 | 45.7 | 45.2
10 | N=C(N)NC(=O)c1nc(Cl)c(N)nc1N | 106 | 116 | 114 | 127 | 120 | 116 | 130 | 120 | 59.8 | 16.9 | 9.59 | 104 | 114 | 115 | 124 | 115 | 126 | 130 | 128 | 116 | 56.1 | 17.5 |  |  |  |  |  |  |  |  |  |  | 
11 | CC[C@H]1/C=C\C=C/C[C@@H](C)[C@H](O)[C@@](C)(O)C(=O)[C@@H](C)[C@H](O)[C@@H](C)C(=O)[C@@H](C)[C@H](O)[C@@H](C)/C=C/C(=O)O[C@@H]2[C@H](C)[C@H](CC1)O[C@]1(CC[C@H](C)[C@H](C[C@@H](C)O)O1)[C@H]2C | 91.4 | 102 | 98.8 | 102 | 89.5 | 107 | 109 | 67.4 | 57.1 | 41.4 | 4.23 | 84.9 | 102 | 92.7 | 89.9 | 101 | 99.8 | 92.2 | 59.1 | 45.9 | 41.8 | 5.21 | 90.5 | 96.7 | 75 | 110 | 94.1 | 109 | 108 | 64.4 | 58.9 | 53.7 | 5.47
12 | O=C(NC[C@H]1CN(c2ccc(N3CCOCC3=O)cc2)C(=O)O1)c1ccc(Cl)s1 | 104 | 111 | 112 | 115 | 113 | 119 | 122 | 114 | 16 | 13.4 | 12.4 | 103 | 119 | 115 | 125 | 126 | 123 | 134 | 132 | 51.1 | 37.8 | 19.3 |  |  |  |  |  |  |  |  |  |  | 
13 | Clc1cc(Cl)cc(CNc2ncncc2-c2ccc3c(c2)OCO3)c1 | 93.7 | 93.6 | 92.6 | 97.4 | 100 | 90.3 | 93.8 | 97.5 | 92.6 | 94 | 10.4 | 87.6 | 96.6 | 102 | 96.1 | 95.1 | 91.7 | 92.7 | 102 | 97.9 | 99 | 61.1 | 97.6 | 92.7 | 91.3 | 93.8 | 96.3 | 93.1 | 86.6 | 94.2 | 89.9 | 86 | 47.2
14 | CN1CCC(CC1)COC2=CN=C(N=C2)C3=CC(=CC=C3)CN4/N=C(\C=C/C4=O)C5=CC(=CC=C5)C#N | 103 | 112 | 112 | 114 | 119 | 112 | 114 | 123 | 113 | 112 | 105 | 117 | 112 | 119 | 112 | 130 | 123 | 131 | 120 | 118 | 121 | 122 | 107 | 113 | 111 | 102 | 122 | 118 | 118 | 111 | 123 | 112 | 113
15 | CC\1=C(C(=O)N(\C=C1)C2=CC=C(C=C2)C3=NC=CO3)/C4=CC5=CN=C(N)N=C5C=C4 | 105 | 114 | 111 | 108 | 115 | 111 | 109 | 117 | 105 | 110 | 91.3 | 102 | 103 | 111 | 112 | 117 | 109 | 111 | 110 | 94.2 | 105 | 79.6 | 106 | 112 | 108 | 102 | 112 | 105 | 109 | 102 | 106 | 98.6 | 80.2
16 | CC(C)(C)C(=O)Oc1ccc([S+](=O)([O-])Nc2ccccc2C(=O)NCC(=O)O)cc1 | 113 | 114 | 113 | 111 | 117 | 122 | 116 | 115 | 111 | 123 | 133 | 112 | 115 | 106 | 118 | 113 | 117 | 120 | 121 | 122 | 132 | 138 | 107 | 106 | 111 | 106 | 115 | 123 | 113 | 119 | 126 | 131 | 134
